{"source": "patent US8715959B2", "about": "“Substitution mutant receptors and their use in a nuclear receptor-based inducible gene expression system” (priority 2001, dated 2014)", "molecules": {"B1": {"name": "G121L: DmEcR-CDEF LBD substitution mutant, Glycine (G) to Leucine (L) (protein)", "chain": "LTYNQLAVIYKLIWYQDGYEQPSEEDLRRIMSQPDENESQTDVSFRHITEITILTVQLIVEFAKGLPAFTKIPQEDQITLLKACSSEVMMLRMARRYDHSSDSIFFANNRSYTRDSYKMALMADNIEDLLHFCRQMFSMKVDNVEYALLTAIVIFSDRPGLEKAQLVEAIQSYYIDTLRIYILNRHCGDSMSLVFYAKLLSILTELRTLGNQNAEMCFSLKLKNRKLPKFLEEIWDV", "modifications": "Drosophila melanogaster"}, "B2": {"name": "A110S: CfEcR-DEF LBD substitution mutant, Alanine (A) to Serine (S) (protein, listed as Choristoneura fumiferana)", "chain": "LTANQQFLIARLIWYQDGYEQPSDEDLKRITQTWQQADDENEESDTPFRQITEMTILTVQLIVEFAKGLPGFAKISQPDQITLLKACSSEVMMLRVARRYDAASDSVLFSNNQAYTRDNYRKAGMAYVIEDLLHFCRCMYSMALDNIHYALLTAVVIFSDRPGLEQPQLVEEIQRYYLNTLRIYILNQLSGSARSSVIYGKILSILSELRTLGMQNSNMCISLKLKNRKLPPFLEEIWDV"}, "B3": {"name": "A110L: CfEcR-DEF LBD substitution mutant, Alanine (A) to Leucine (L) (protein, listed as Choristoneura fumiferana)", "chain": "LTANQQFLIARLIWYQDGYEQPSDEDLKRITQTWQQADDENEESDTPFRQITEMTILTVQLIVEFAKGLPGFAKISQPDQITLLKACSSEVMMLRVARRYDAASDSVLFLNNQAYTRDNYRKAGMAYVIEDLLHFCRCMYSMALDNIHYALLTAVVIFSDRPGLEQPQLVEEIQRYYLNTLRIYILNQLSGSARSSVIYGKILSILSELRTLGMQNSNMCISLKLKNRKLPPFLEEIWDV"}, "B4": {"name": "A110M: CfEcR-DEF LBD substitution mutant, Alanine (A) to Methionine (M) (protein, listed as Choristoneura fumiferana)", "chain": "LTANQQFLIARLIWYQDGYEQPSDEDLKRITQTWQQADDENEESDTPFRQITEMTILTVQLIVEFAKGLPGFAKISQPDQITLLKACSSEVMMLRVARRYDAASDSVLFMNNQAYTRDNYRKAGMAYVIEDLLHFCRCMYSMALDNIHYALLTAVVIFSDRPGLEQPQLVEEIQRYYLNTLRIYILNQLSGSARSSVIYGKILSILSELRTLGMQNSNMCISLKLKNRKLPPFLEEIWDV"}}, "key": {"[1]": {"test_system": "WT full-length EcR", "test": "In vitro ligand binding assay with 3H-RH2485 and cold competitors, full-length WT EcR (FIG. 1)", "parameters": "species or system Choristoneura fumiferana", "details": "cold ligand as competitor", "description": "(§1) Applicants tested the A110P mutant CfEcR receptor in a steroid and non-steroid ligand binding assay to confirm that steroid binding was eliminated. Briefly, PonA binding activity was determined using an in vitro ligand binding assay (LBA). Steroid ligand binding assay (LBA) was performed using ^3H-PonA (200 Ci/mmol). In vitro translated Gal4/wild-type or A110P mutant CfEcR-DEF and bacterial expressed GST-CfUSP-A/BCDEF were used in the assay. The assay was performed with 8 μL of Gal4/wild-type or A110P mutant CfEcR-DEF, 2.5 uL of GST-CfUSP-A/BCDEF, 1 μL of ^3H-PonA, and 2 μL of unlabeled (“cold”) PonA as competitor in the presence of T buffer [90 mM Tris pH 8.0, 10 μM DTT comprising Complete™ protease inhibitor cocktail used according to the manufacturer's instructions (Boehringer Mannheim)]. The reaction was carried out at room temperature for 1 hour followed by the addition of dextran-coated charcoal (Sigma). The mixture was centrifuged at 7000×g for 10 minutes the amount of ^3H-PonA in the supernatant was measured. The reactions were done in triplicate. The full-length WT EcR or its A110P mutant were also in vitro translated and transcribed using the TNT system (Promega) according to the manufacturer's instructions and tested in in vitro ligand binding assays using 3H-RH2485, with cold 20E or non-steroids (RH2485 and GS™-E) as competitors. In addition, 5 μL of the in vitro translations were assayed for translation efficiency using SDS-PAGE following standard methods (Maniatis, 1989). The ligand binding results for both the wild-type and A110P mutant CfEcR-DEF receptors were calculated and are shown in FIG. 1."}, "[2]": {"test_system": "A110P mutant CfEcR", "test": "In vitro ligand binding assay with 3H-RH2485 and cold competitors, full-length A110P mutant (FIG. 1)", "parameters": "species or system Choristoneura fumiferana", "details": "cold ligand as competitor of 3H-RH2485", "description": "as §1"}, "[3]": {"biological_target": "T1, wild-type CfEcR-A/BCDEF (Choristoneura fumiferana, UniProt O77240)", "T1 construct": "\"The full-length spruce budworm Choristoneura fumiferana EcR (“CfEcR-A/BCDEF”); b350 and b353 describe plain full-length EcR translated in vitro", "test": "3H-RH2485 competition ligand binding, wild-type CfEcR-A/BCDEF with CfUSP"}, "[4]": {"biological_target": "A110P mutant CfEcR-A/BCDEF (Choristoneura fumiferana, UniProt O77255, A393P)", "sequence (O77255 entry or part of it A393P)": "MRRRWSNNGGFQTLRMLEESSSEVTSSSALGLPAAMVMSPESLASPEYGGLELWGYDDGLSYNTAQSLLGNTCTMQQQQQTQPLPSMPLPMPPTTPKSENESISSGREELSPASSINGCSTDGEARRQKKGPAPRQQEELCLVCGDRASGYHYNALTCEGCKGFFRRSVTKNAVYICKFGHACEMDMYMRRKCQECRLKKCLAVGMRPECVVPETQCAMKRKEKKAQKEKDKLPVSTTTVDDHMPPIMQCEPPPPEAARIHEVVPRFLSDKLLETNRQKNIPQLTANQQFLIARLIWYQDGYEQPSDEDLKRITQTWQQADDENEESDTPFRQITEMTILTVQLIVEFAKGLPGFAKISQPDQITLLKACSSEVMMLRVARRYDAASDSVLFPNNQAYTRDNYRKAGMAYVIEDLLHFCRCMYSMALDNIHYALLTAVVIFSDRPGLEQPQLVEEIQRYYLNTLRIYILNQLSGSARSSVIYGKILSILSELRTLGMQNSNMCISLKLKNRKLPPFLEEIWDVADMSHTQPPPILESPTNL", "sequence (O76202 whole entry, further chain, the tested form may be a part)": "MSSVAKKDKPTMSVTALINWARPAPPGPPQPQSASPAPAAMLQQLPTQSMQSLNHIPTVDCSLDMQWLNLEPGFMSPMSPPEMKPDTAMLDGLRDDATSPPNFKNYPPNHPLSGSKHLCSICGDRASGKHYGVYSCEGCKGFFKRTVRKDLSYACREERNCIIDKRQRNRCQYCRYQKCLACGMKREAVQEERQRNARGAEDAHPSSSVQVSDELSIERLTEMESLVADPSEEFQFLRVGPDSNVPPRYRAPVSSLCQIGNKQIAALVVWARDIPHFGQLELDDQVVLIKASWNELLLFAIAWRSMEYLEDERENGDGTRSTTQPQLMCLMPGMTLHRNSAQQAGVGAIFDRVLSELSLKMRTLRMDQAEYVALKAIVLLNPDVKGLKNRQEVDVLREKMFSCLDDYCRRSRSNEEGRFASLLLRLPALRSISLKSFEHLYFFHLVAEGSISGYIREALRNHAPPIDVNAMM", "test": "3H-RH2485 competition ligand binding, A110P mutant CfEcR-A/BCDEF with CfUSP", "description": "The ligand binding affinities of the A110P GAL4/CfEcR mutant were measured by binding ^3H-RH2485 and competing it with different concentrations of cold steroids or non-steroids. Briefly, 3H-RH2485 was bound to in vitro translated full-length CfEcR and bacterially expressed CfUSP and competed with increasing concentrations of cold steroidal or non-steroidal ligands. The reaction was carried out at room temperature for 1 hour followed by addition of activated dextran coated charcoal and centrifugation at 7000×g for 10 minutes at 4° C. The residual ^3H-RH2485 in the supernatant after centrifugation was measured using a scintillation counter. The fraction bound (f bound) values were determined and plotted against the concentration of ligand (in mM)."}, "[5]": {"test_system": "DmEcR-CDEF", "test": "VP16/DmEcR-CDEF wild-type and mutants, 6xEcRE β-gal reporter transactivation in insect L57 cells", "type": "cell-based, Drosophila melanogaster", "description": "The wild-type and mutant DmEcR-CDEF receptors were also used to make VP16/wild-type or mutantDmEcR-CDEF constructs as described in Example 1.10 and 1.11. VP16DmEcR-CDEF and a 6×EcREβ-gal reporter were transfected into L57 cells and the transfected cells were treated with 1 uM 20-hydroxyecdysone (20E) or GS™-E. The cells were harvested, lysed and the reporter activity was measured as described above in Example 6. The fold induction was calculated by dividing reporter activity in the presence of ligand with the reporter activity in the absence of ligand. From the fold induction, percent wild-type activity was calculated for each mutant."}, "[6]": {"test_system": "DmEcR-CDEF", "test": "GAL4/DmEcR-CDEF wild-type and mutants, luciferase reporter transactivation in NIH3T3 cells", "type": "cell-based, Drosophila melanogaster", "details": "GAL4/DmEcR-CDEF + VP16/LmUSP-EF + pFRLUC, 48 hours", "description": "DNAs corresponding to the various switch constructs outlined in Example 1, specifically switches 1.1-1.2, were transfected into mouse NIH3T3 cells (ATCC) as follows. […] Two μl of Superfect™ was mixed with 100 μl of growth medium and 50 ng of either GAL4/wild-type EcR or Gal4/mutant EcR cassette, 50 ng of VP16/LmUSP-EF and 200 ng of pFRLuc were added to the transfection mix. […] The cells were harvested and reporter activity was assayed as described above.\nApplicants mutated amino acid residues predicted to be critical for ecdysteroid binding and created GAL4/mutantDmEcR-CDEF cDNA gene expression cassettes as described in Example 1 above using PCR-mediated site-directed mutagenesis. The mutated and the WT cDNAs corresponding to the various switch constructs outlined above in Examples 1.8 and 1.9 were made and tested in reporter assays in NIH3T3 cells as described in Example 2. Each GAL4/DmEcR-CDEF construct, VP16/LmUSP-EF, and pFRLUC were transfected into NIH3T3 cells and the transfected cells were treated with 2.5 μM GS-™E or Ponasterone A. The cells were harvested and the reporter activity was measured at 48 hours after addition of ligand. The fold induction was calculated by dividing reporter activity in the presence of ligand with the reporter activity in the absence of ligand. From the fold induction, percent wild-type activity was calculated for each mutant."}, "[7]": {"test_system": "CfEcR-DEF", "test": "GAL4 fusions of A110 mutants of CfEcR-DEF, reporter transactivation in NIH3T3 cells (FIG. 4)", "type": "cell-based, Choristoneura fumiferana", "details": "0.04-25 μM GS™-E or RH-125020, 48 hours", "description": "Four mutations: A110S, A110P, A110L, and A110M were obtained. These four mutant and wild-type receptors were assayed in NIH3T3 cells."}}}
{"molecule": "CC(C)(O)CC[C@@H](O)[C@](C)(O)[C@H]1CC[C@@]2(O)C3=CC(=O)[C@@H]4C[C@@H](O)[C@@H](O)C[C@]4(C)[C@H]3CC[C@]12C", "note": "[Mutant 20E, 20-hydroxyecdysone]", "values": [{"measurement": "competition with bound 3H-RH2485 (binding to WT full-length EcR)", "setting": "[1]", "result": "able to effectively compete"}, {"measurement": "binding of ligand by the A110P mutant", "setting": "[2]", "result": "completely disrupted"}]}
{"molecule": "CCc1c(OC)cccc1C(=O)NN(C(=O)c1cc(C)cc(C)c1)C(C)(C)C", "note": "[GS ™-E, N-(2-ethyl-3-methoxybenzoyl)-N′-(3,5-dimethylbenzoyl)-N′-tert-butylhydrazine]", "values": [{"measurement": "competition with bound 3H-RH2485 (binding to WT full-length EcR)", "setting": "[1]", "result": "able to effectively compete"}, {"measurement": "IC50", "setting": "[3]", "result": 0.0853, "unit": "µM"}, {"measurement": "binding of ligand by the A110P mutant", "setting": "[2]", "result": "unaffected"}, {"measurement": "IC50", "setting": "[4]", "result": 0.0129, "unit": "µM"}]}
{"molecule": "CC(C)CC[C@@H](O)[C@](C)(O)[C@H]1CC[C@@]2(O)C3=CC(=O)[C@@H]4C[C@@H](O)[C@@H](O)C[C@]4(C)[C@H]3CC[C@]12C", "note": "[Ponasterone A, ponasterone A]", "values": [{"measurement": "IC50", "setting": "[3]", "result": 0.346, "unit": "µM"}, {"measurement": "IC50", "setting": "[4]", "result": "> 1000", "unit": "µM"}]}
{"molecule": "CCc1ccc(C(=O)NN(C(=O)c2cc(C)cc(C)c2)C(C)(C)C)cc1", "note": "[RH-5992]", "values": [{"measurement": "IC50", "setting": "[3]", "result": 0.133, "unit": "µM"}, {"measurement": "IC50", "setting": "[4]", "result": 0.322, "unit": "µM"}]}
{"molecule": "COc1cccc(C(=O)NN(C(=O)c2cc(C)cc(C)c2)C(C)(C)C)c1C", "note": "[RH-2485, N′-tert-butyl-N′-(3,5-dimethylbenzoyl)-3-methoxy-2-methylbenzohydrazide]", "values": [{"measurement": "competition with bound 3H-RH2485 (binding to WT full-length EcR)", "setting": "[1]", "result": "able to effectively compete"}, {"measurement": "IC50", "setting": "[3]", "result": 1.8, "unit": "µM"}, {"measurement": "binding of ligand by the A110P mutant", "setting": "[2]", "result": "unaffected"}, {"measurement": "IC50", "setting": "[4]", "result": 0.35, "unit": "µM"}]}
{"molecule": "Cc1cc(C)cc(C(=O)N(NC(=O)c2ccc3c(c2C)OCCO3)C(C)(C)C)c1", "note": "[RH-125020, N′-tert-butyl-N′-(3,5-dimethylbenzoyl)-3,4-(1,2-ethylenedioxy)-2-methylbenzohydrazide]", "values": [{"measurement": "IC50", "setting": "[3]", "result": 0.0101, "unit": "µM"}, {"measurement": "IC50", "setting": "[4]", "result": 0.0257, "unit": "µM"}]}
{"molecule": "CC(C)CC[C@@H](O)[C@](C)(O)[C@H]1CC[C@@]2(O)C3=CC(=O)[C@]4(O)C[C@@H](O)[C@@H](O)C[C@]4(C)[C@H]3[C@H](O)C[C@]12C", "note": "[Muristerone A, muristeroneA]", "values": [{"measurement": "IC50", "setting": "[3]", "result": 0.424, "unit": "µM"}, {"measurement": "IC50", "setting": "[4]", "result": "> 1000", "unit": "µM"}]}
{"molecule": "B1", "values": [{"measurement": "Fold increase over WT, 1 μM 20-hydroxyecdysone", "setting": "[5]; 1 μM 20-hydroxyecdysone, VP16/DmEcR-CDEF", "result": 0.09, "unit": "fold"}, {"measurement": "Fold increase over WT, 1 μM GS™-E", "setting": "[5]; 1 μM GS™-E, VP16/DmEcR-CDEF", "result": 0.15, "unit": "fold"}, {"measurement": "steroid activity (summary of Table 14)", "setting": "[5]; 20E, DmEcR mutants", "result": "lost sensitivity"}, {"measurement": "non-steroid activity (summary of Table 14)", "setting": "[5]; GS™-E, DmEcR mutants", "result": "lost sensitivity"}, {"measurement": "Fold increase over WT, 2.5 μM GS™-E", "setting": "[6]; 2.5 μM GS™-E", "result": 0.008, "unit": "fold"}, {"measurement": "Fold increase over WT, 2.5 μM Ponasterone A", "setting": "[6]; 2.5 μM Ponasterone A", "result": 0.001, "unit": "fold"}]}
{"molecule": "B2", "values": [{"measurement": "non-steroid reporter activity compared to wild-type receptor", "setting": "[7]", "result": "lower sensitivity and no detectable transactivation at the two lowest concentrations"}]}
{"molecule": "B3", "values": [{"measurement": "non-steroid reporter activity compared to wild-type receptor", "setting": "[7]", "result": "lower sensitivity and no detectable transactivation at the two lowest concentrations"}]}
{"molecule": "B4", "values": [{"measurement": "non-steroid reporter activity compared to wild-type receptor", "setting": "[7]", "result": "lower sensitivity and no detectable transactivation at the two lowest concentrations"}]}
